Like-named read-outs stand apart in the source and are kept apart here.
What was measured:
[1] = test system: ERα-UAS-bla GripTite cells; settings: for TKcytotoxicity (TK-Ratio for cytotoxicity): IC10 before/after aCYP oxidation
Experimental: Cell culture conditions and bioassay protocols including response detection are provided in Text S2.1–2.4 and Table S3. − Cell viability was determined from cell confluency using an IncuCyte S3 Live-Cell Analysis System (Sartorius AG, Essen, Germany) before and after exposure, except for SH-SY5Y cells (live–dead staining with Nuclear Green LcS1 and propidium iodide, Abcam, UK). For metabolic activation experiments, cell viability was assessed using the ToxBLAzer DualScreen Kit (Thermo Fisher Scientific) to capture the remaining toxicity in ERα-UAS-bla GripTite after treatment with the aCYP catalyst (details in Text S2.4). […]
The TK-Ratio method was used to evaluate the impact of abiotic CYP oxidation on the potency of tested compounds. […]
For experiments with the preceding aCYP activation, ERα cell viability was additionally calculated from the readout of the ToxBLAzer reagent. The ToxBLAzer assay was conducted following the manufacturer's instructions (Thermo Fisher, Waltham, MA, U.S.).13 Fluorescence intensity was recorded at the start of the assay ( Fwavelength(0h)) and after a 2-hour incubation at […]
eq. S11 for normalization.
Cell viability = F665nm(2h, sample)-F665nm(0h, average cell-free) (S11) F665nm(2h, average unexposed)-F665nm(0h, average cell-free) […]
the specific endpoint to avoid artifacts from cytotoxicity burst. 15
S2.5: Concentration-response curves (CRCs)
To avoid bias from cytotoxicity burst at higher concentrations, all concentrations exceeding the IC10 for cytotoxicity were excluded in the CRC modeling of effects but otherwise cytotoxicity and effects were fitted with the same model equations (response stands for cytotoxicity or effect). For ERα, AhR, ARE and PPARγ preferably a linear model was fitted to the linear portion of CRC up to maximum 30% effect (eq. S12),16 but in some cases it was necessary to choose a sigmoidal log-concentration-response model, specifically a log-logistic model (eq. S13), to derive effect concentrations and cytotoxicity. […]
This was done using the
AutomatedBioassayScreening19 published by Braun et al.,20 which also included an algorithm to choose the best model between eq. S12 and eq. S13.
Response (%) = slope × C (S12) […]
logEC =logEC − 1 ∙log (max−min − 100%) (S14)

SH-SY5Y cells = experiment: cells; settings: for EC10: Homo sapiens, SH-SY5Y; for EC10, linear: linear model; for Specificity ratio (SRbaseline) SRNOI: against baseline cytotoxicity; for Relative effect potency REPNOI: relative to BPA;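 on Relative effect potency REPNOI: EC10 of BPA divided by EC10 of the test compound so values above 1 mean more potent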;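 on Specificity ratio (SRbaseline) SRNOI: ratio of predicted baseline cytotoxicity IC10 to the neurite outgrowth inhibition EC10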
From the text: All bioassay media components and the ERα-UAS-bla GripTite and PPARγ-UAS-bla cells were obtained from Thermo Fisher Scientific (Waltham, MA, USA). AREc32 reporter gene cells based on MCF7 were provided by C. Roland Wolf (Cancer Research UK); AhR CALUX cells (H4L7.5c2 derived from H4IIe) were provided by Michael Denison (UC Davis, USA); and SH-SY5Y cells were purchased from Sigma-Aldrich.
Cell culture conditions and bioassay protocols including response detection are provided in Text S2.1–2.4 and Table S3. − Cell viability was determined from cell confluency using an IncuCyte S3 Live-Cell Analysis System (Sartorius AG, Essen, Germany) before and after exposure, except for SH-SY5Y cells (live–dead staining with Nuclear Green LcS1 and propidium iodide, Abcam, UK). For metabolic activation experiments, cell viability was assessed using the ToxBLAzer DualScreen Kit (Thermo Fisher Scientific) to capture the remaining toxicity in ERα-UAS-bla GripTite after treatment with the aCYP catalyst (details in Text S2.4).
For ARE, the concentration that triggered an induction ratio of 1.5 (ECIR1.5) was used as the benchmark value, as detailed in Text S2.5. IC10 values also served as a threshold for data analysis in all assays; only concentrations below IC10 were considered when deriving EC10 or ECIR1.5. […]
S2: Cell culture and bioassays
S2.1: Cell Culturing Conditions
All suppliers and sources are given in detail in SI-Excel S3. The bioassay media for the different assays were prepared as follows: Assay medium for ER alpha-UAS-bla GripTite (ERα) and PPAR gamma-UAS-bla 293H (PPARγ) was prepared with 98% Opti-MEM, supplemented with 2% charcoal-stripped FBS, and 100 U/mL penicillin-streptomycin. MitoOxTox and AhR assay medium was comprised of 90% DMEM with GlutaMAX, supplemented with 10% FBS, and 100 U/mL penicillin-streptomycin. Neurotoxicity assay medium consisted of the neurobasal […]
(1 picture or pasted object on this page, not shown here) […]
medium, supplemented with 2% B-27 Supplement and 2 mM GlutaMAX Supplement. SH - SY5Y cells were differentiated with 10 µM all-trans retinoic acid prior to the assay.
S2.2: Cell Seeding and Incubation. For all bioassays, cell suspensions in the respective assay medium were dispensed into each well of 384-well plates using a MultiFlo Dispenser (Biotek, (now Agilent), Winooski, VT, U.S.). After seeding, the plates were incubated at 37° C and 5% CO₂ for […]. The final cell densities and plate types were as follows: Black poly-D-lysine coated 384-well plates (Product No. 354663, Corning Inc., NYC, U.S.) were used for PPARγ:
6500 cells/well, ERα: 5000 cells/well. White 384-well plates with a clear bottom (Product No.
781098, Greiner, Kremsmünster, Austria) were utilized for the MitoOxTox assay: 2650

[2] = Table S10, TKcytotoxicity-Ratio
[3] = read-out: EC10, linear transformed
[4] = NOI bioassay, dosing range all, log-logistic model
[5] = Table S11, TKcytotoxicity-Ratio
[6] = against experimental cytotoxicity

| SMILES | TKcytotoxicity [1, 2] | EC10 (SH-SY5Y cells; [3]) [M] | EC10, linear (SH-SY5Y cells; NOI bioassay, dosing range all) | EC10 (SH-SY5Y cells; read-out: EC10, linear) [M] | EC10 (SH-SY5Y cells; read-out: logEC10) [M] | EC10 (SH-SY5Y cells; read-out: EC10, NOI) [M] | EC10 (SH-SY5Y cells; read-out: EC10, NOI (M)) [M] | Specificity ratio (SRbaseline) SRNOI (SH-SY5Y cells) | Relative effect potency REPNOI (SH-SY5Y cells) | further results |
| --- | --- | --- | --- | --- | --- | --- | --- | --- | --- | --- |
| O=C(OCc1ccccc1)c1ccc(O)cc1 [BzPB, Benzyl 4-hydroxybenzoate] | 1.10 | 0.000412 | no effect | – | – | – | – | – | – | logEC10 (SH-SY5Y cells; [4]): no effect |
| CC1(C)[C@H](O)C(C)(C)[C@H]1O [Trans TMCD] | – | 0.00415 | – | 0.00531 | 0.00417 | – | – | – | – | – |
| C=CCOc1ccc(S(=O)(=O)c2ccc(O)cc2)cc1 [BPS-MAE, 4-[[4-(Allyloxy)phenyl]sulfonyl]phenol] | 2.91 | 2.55e-05 | – | 6.61e-05 | 2.51e-05 | 2.52e-05 | 2.52e-05 | – | – | – |
| Oc1ccc(C(c2ccc(O)cc2)(C(F)(F)F)C(F)(F)F)cc1 [BPAF, 4,4'-(1,1,1,3,3,3-Hexafluoropropane-2,2-diyl)diphenol] | 1.14 | 2.61e-05 | – | 1.93e-05 | 1.62e-05 | 1.62e-05 | 1.62e-05 | – | – | – |
| Cc1ccc(S(=O)(=O)NC(=O)Nc2ccc(Cc3ccc(NC(=O)NS(=O)(=O)c4ccc(C)cc4)cc3)cc2)cc1 [BTUM, 4,4'-Bis(p-tolylsulfonylureido)diphenylmethane] | – | 6.48e-05 | no effect | – | 6.46e-05 | 6.48e-05 | 6.48e-05 | 1.03 | 0.78 | IC10, before oxidation ([1]; Table S10, cytotoxicity from ToxBLazer data, without simultaneous cparent measurement): no cytotoxicity; TKcytotoxicity [1, 5]: 2.25 |
| CC(C)(c1cc(Br)c(O)c(Br)c1)c1cc(Br)c(O)c(Br)c1 [TBBPA, 3,3',5,5'-Tetrabromobisphenol A] | 0.52 | – | no effect | – | – | – | – | – | – | logEC10 (SH-SY5Y cells): no effect |
| CC(c1ccccc1)(c1ccc(O)cc1)c1ccc(O)cc1 [BPAP, 4,4'-(1-Phenylethylidene)bisphenol] | – | 5.09e-05 | – | 4.83e-05 | 5.13e-05 | 5.12e-05 | 5.12e-05 | – | – | TKcytotoxicity [1, 5]: 0.76 |
| CC(C)(c1ccc(O)cc1)c1ccc(O)cc1 [BPA, 4,4'-(Propane-2,2-diyl)diphenol, reference compound] | 1.13 | 7.63e-05 | – | 7.16e-05 | 5.13e-05 | 5.08e-05 | 5.08e-05 | 0.40 | 1.00 | TKcytotoxicity (TK-Ratio for cytotoxicity) [1]: ≤ 2; TKcytotoxicity [1, 5]: 0.63; Specificity ratio (SRcytotoxicity) SRNOI (SH-SY5Y cells; human, 24 h): 4.68; SR (neurite outgrowth inhibition) (SH-SY5Y cells; specificity ratio): < 10 |
| Cc1cc(Cc2cc(C)c(O)c(C)c2)cc(C)c1O [TMBPF, Bis(3,5-dimethyl-4-hydroxyphenyl)methane] | 0.35 | 5.49e-06 | – | 5.06e-06 | 4.27e-06 | 4.28e-06 | 4.28e-06 | 2.18 | 11.87 | Specificity ratio (SRcytotoxicity) SRNOI (SH-SY5Y cells; [6]): 2.97 |
| O=S(=O)(c1ccc(O)cc1)c1ccccc1O [2,4-BPS, 2,4'-Dihydroxydiphenyl sulfone] | – | 0.000871 | no effect | – | – | – | – | – | – | TKcytotoxicity ([1]; human): 1.61; logEC10 (SH-SY5Y cells; [4]): no effect |
| Cc1ccc(S(=O)(=O)NC(=O)Nc2cccc(OS(=O)(=O)c3ccc(C)cc3)c2)cc1 [Pergafast, N-(p-toluenesulfonyl)-N'-(3-(p-toluenesulfonyloxy)phenyl)urea] | 0.45 | 1.52e-05 | – | 1.25e-05 | 1.51e-05 | 1.25e-05 | 1.25e-05 | 8.80 | 4.06 | Specificity ratio (SRcytotoxicity) SRNOI (SH-SY5Y cells; [6]): 3.95 |
| CC1(C)C(O)C(C)(C)C1O (racemic) [r-TMCD, 2,2,4,4-Tetramethyl-1,3-cyclobutanediol (racemate)] | – | 0.00599 | – | 0.00494 | 0.00603 | 0.00599 | 0.00599 | 0.17 | 0.00848 | – |
| CC(C)CC(C)(c1ccc(O)cc1)c1ccc(O)cc1 [BP-MIBK, 4,4'-(1,3-Dimethylbutylidene)diphenol] | – | 5.05e-05 | no effect | – | – | – | – | – | – | TKcytotoxicity ([1]; human): 0.48; logEC10 (SH-SY5Y cells; [4]): no effect |
| CC(C)(c1ccc(OCC2CO2)cc1)c1ccc(OCC2CO2)cc1 (stereo not drawn) [BADGE, Bisphenol A diglycidyl ether] | – | 4.5e-05 | – | 3.69e-05 | 3.8e-05 | 3.81e-05 | 3.81e-05 | 0.48 | 1.33 | Specificity ratio (SRcytotoxicity) SRNOI (SH-SY5Y cells; [6]): 1.50 |
| CC(C)c1cc(C(C)(C)c2ccc(O)c(C(C)C)c2)ccc1O [BPG, 2,2-Bis(4-hydroxy-3-isopropylphenyl)propane] | 0.62 | 2.67e-05 | no effect | – | – | – | – | – | – | TKcytotoxicity [1, 5]: 0.67; logEC10 (SH-SY5Y cells; [4]): no effect |
| CC1(C)[C@H](O)C(C)(C)[C@H]1O [t-TMCD, trans-2,2,4,4-Tetramethyl-1,3-cyclobutanediol] | 1.74 | – | – | – | – | 0.00415 | 0.00415 | 0.24 | 0.0122 | – |
| CCC(C)(c1ccc(O)cc1)c1ccc(O)cc1 [BPB, 4,4'-(Butane-2,2-diyl)diphenol] | 0.24 | 3.89e-05 | – | 4.03e-05 | 2.82e-05 | 2.8e-05 | 2.8e-05 | 0.59 | 1.81 | Specificity ratio (SRcytotoxicity) SRNOI (SH-SY5Y cells; [6]): 5.98 |
| CC(c1ccc(O)cc1)c1ccc(O)cc1 [BPE, 4,4′-Ethylidenbisphenol] | 0.63 | 0.000235 | – | 0.000136 | 0.000115 | 0.000114 | 0.000114 | – | – | – |
| COC(=O)C(c1ccc(O)cc1)c1ccc(O)cc1 [Bz, Methyl bis(4-hydroxyphenyl)acetate] | 2.48 | 0.0004 | no effect | – | 0.00038 | – | – | – | – | TKcytotoxicity (TK-Ratio for cytotoxicity) [1]: 2.48 ± 0.69 |
| Oc1ccc(C2(c3ccc(O)cc3)CCCCC2)cc1 [BPZ, 1,1'-Bis(4-hydroxyphenyl)cyclohexane] | 0.53 | 4.31e-05 | – | 3.52e-05 | 3.02e-05 | 3.05e-05 | 3.05e-05 | – | – | – |
| O=S(=O)(c1ccc(O)cc1)c1ccc(O)cc1 [BPS, 4,4'-Sulfonyldiphenol] | – | 0.000411 | no effect | – | – | – | – | – | – | logEC10 (SH-SY5Y cells; [4]): no effect |
